From EP0705603A1, “Use of non-toxic cysteine sulfoxide derivatives in the treatment of cancer or for enhancing the T-cell count” (priority 1994, dated 1996)

Experiment: Toxicity after intravenous administration to patients
Format: in vivo, patient
Experimental: Aqueous solutions of t-butyl hydroperoxide are prepared by dissolving 50 ml of a 70% aqueous solution of t-butyl hydroperoxide in 1 litre of normal (0.9%) saline. 15-30 ml of this solution is given intravenously over a period of up to about 15 minutes.
Aqueous solutions of methyl, ethyl, propyl and butyl cysteine sulfoxide are prepared by dissolving 100 gram of the respective sulfoxide in 1 litre of normal (0.9%) saline. 30-60 ml of this solution (delivering an approximate […] dose of the sulfoxide) is given intravenously.
An aqueous solution of L-cystine is prepared by first dissolving 80 grams of N-methyl-D-glucamine in 1 litre of normal (0.9%) saline and the dissolving in 40 g of L-cystine. 50 to 60 ml of the solution (delivering an approximately 2 g dose of cystine) is given intravenously.
An aqueous solution of oxidised glutathione is prepared by dissolving 40 grams in 1 litre of normal (0.9%) saline. 50-60 ml of this solution (delivering an approximately 2 g dose of oxidised glutathione) is given intravenously.
The t-butyl hydroperoxide solution is administered by intravenous infusion over a period of up to about 15 minutes. This is then followed immediately by intravenous infusion of the sulfoxide, optionally with cystine and/or oxidised glutathione solutions, and then (within three minutes) Ultra High Frequency microwave radiation is commenced and is delivered over the next 20 - 30 minutes. 1 or 2 rest intervals of 2 to 3 minutes each are permitted during this application. Three such treatment sessions may be undertaken per day.
No immediate or late changes in blood pressure, renal or liver function, electrolytes or haematology have been seen from the method.

Compound | symptoms suggestive of any toxicity (human, in vivo, iv) | other results
CCC[S+]([O-])CC(N)C(=O)O (stereo not drawn) [propyl cysteine sulfoxide] | No symptoms suggestive of any toxicity | –
C=CC[S+]([O-])CC(N)C(=O)O (stereo not drawn) [allyl cysteine sulfoxide] | No symptoms suggestive of any toxicity | –
CCCC[S+]([O-])CC(N)C(=O)O (stereo not drawn) [butyl cysteine sulfoxide] | No symptoms suggestive of any toxicity | –
CC[S+]([O-])CC(N)C(=O)O (stereo not drawn) [ethyl cysteine sulfoxide] | No symptoms suggestive of any toxicity | –
N[C@@H](CSSC[C@H](N)C(=O)O)C(=O)O [L-cystine] | No symptoms suggestive of any toxicity | NOAEL (human, in vivo, iv): > 100 mg/kg
C[S+]([O-])CC(N)C(=O)O (stereo not drawn) [methyl cysteine sulfoxide] | No symptoms suggestive of any toxicity | –
CC(C)(C)OO [t-butyl hydroperoxide] | – | volume of saline solution of oxidising agent that can safely and effectively be administered (70% t-butyl hydroperoxide in water diluted in normal (0.9%) saline, intravenous, over about 5 minutes): 60 mL; symptoms suggestive of any toxicity (after the intravenous administration): No symptoms suggestive of any toxicity
